Laboratory results: patent publication US20070213310A1, “Prodrugs for Use as Ophthalmic Agents” (priority 2002, published 2007)
“Also recorded” adds a separate entry of the source. Where two headings read alike, the source gives them in different places.

Columns and labels:
[1] = tested on: Human retinal ganglial cells (RGC); assay: Viability of retinal ganglial cells (RGC) incubated with glutamate; type: cell-based; settings: for effect on RGC viability, compound alone: without glutamate; for RGC killed by glutamate in the presence of the compound: glutamate 5 mM plus compound (three concentrations)
Procedure: Human retinal ganglial cells (RGC) were incubated with glutamate (5 mM), the estrogen analogue 3,17-dihydroxyestra-1,3,5(10),9(11)-tetraene (ZYC1) or combination of glutamate and various concentrations of ZYC1.
RGC were treated with glutamate (5 mM) in the presence or absence of ZYC1.

[2] = Lipid peroxidation inhibition, ferric thiocyanate (FTC) method; type: biochemical; settings: inhibition of lipid peroxidation
From the text: (§1) Because lipid peroxidation (LPO) is a common marker of damage induced by reactive oxygen species (ROS) (Gutteridge JMC, “Lipid-peroxidation and antioxidants as biomarkers of tissue-damage,” Clin Chem, 41: 1819-1828 (1995); Kaur and Geetha, “Screening methods for antioxidants—A review,” Mini-Rev Med Chem, 6: 305-312 (2006)), two assays were employed to measure capacity to inhibit LPO: the ferric thiocyanate (FTC) and the thiobarbituric acid reactive substances (TBARS) methods. With these assays, the autoxidation of linoleic acid (a lipid model) is measured in the absence and, then, presence of different concentration of antioxidants. […] During the oxidation process, peroxide is gradually decomposed to lower molecular-weight compounds such as malondialdehyde (MDA) that is measured by the TBARS method (Kikuzaki and Nakatani, J Food Sci, 58: 1407-1410 (1993)). […]
(§2) The TBARS assay is a widely adopted and sensitive method for measurement of lipid peroxidation (Callaway J K, Beart P M and Jarrott B. “A reliable procedure for comparison of antioxidants in rat brain homogenates.” J Pharmacol Toxicol Meth, 39: 155-162 (1998)). […] The MDA-TBA complex measured by the TBARs assay is a gauge of LOOH formation (Janero D R. “Malondialdehyde and thiobarbituric acid-reactivity as diagnostic indices of lipid peroxidation and peroxidative tissue injury.” Free Rad Biol Med, 9: 515-540 (1990)). […]

[3] = Lipid peroxidation inhibition, thiobarbituric acid reactive substances (TBARS) method; type: biochemical; settings: inhibition of lipid peroxidation
From the text: as §1, §2

[4] = logP measured by the shake-flask method; type: physicochemical
[5] = 37° C.
Procedure: By way of example, conversion of Formula II by NAD(P)H as an endogenous reducing agent was tested. […] At incremental time points, 100 μl aliquots were removed into ice-cold centrifuge tubes, and 100 μl of glacial acetic acid was added. After immediate extraction with ethyl acetate, the organic layer was evaporated under nitrogen stream. […] For the control experiment, no reducing agent was used.
Liquid chromatography separation was done using a Supelco (Bellfonte, Pa.) 5 cm×2.1 mm i.d. Discovery HS C-18 reversed-phase column with 0.25 ml/min water:methanol:2-propanol:acetic acid:dichloromethane (53:35:5:5:2, v/v) as a mobile phase. The sample residues were dissolved in 40 μl of mobile phase, respectively, and 5 μl of the solution was injected for analysis. Mass spectra were recorded on a quadruple ion-trap instrument (LCQ®, ThermoFinnigan, San Jose, Calif.) using positive-ion atmospheric-pressure chemical ionization (APCI) as the method of ionization. MS/MS and MS^3 product-ion scans were obtained after collision-induced dissociation (CID) with helium as the target gas. […] As an internal standard, 1,3,5(10)-estratrien-17α-ethynyl-17β-ol was added before each sample extraction.

## N[C@@H](CCC(=O)O)C(=O)O [glutamate, reference compound]
[1]; glutamate 5 mM alone
  RGC killed by glutamate: about 70%

## C[C@]12CC[C@@H]3c4ccc(O)cc4C[C@@H](CCCCCCCCC[S+]([O-])CCCC(F)(F)C(F)(F)F)[C@H]3[C@@H]1CC[C@@H]2O (some centres unmarked) [IC1182,780, reference compound]
[1]; glutamate 5 mM, ZYC1 plus various concentrations of estrogen receptor antagonist
  antagonism of ZYC1 protection of RGC: little antagonism

## C[C@]12CC[C@@H]3c4cc(C56CC7CC(CC(C7)C5)C6)c(O)cc4CC[C@H]3[C@@H]1CC[C@@H]2O [2-(1-adamantyl)-estra-1,3,5(10)-triene-3,17β-diol]
[2]
  IC50: 1.5 ± 0.1 µM
[3]
  IC50: 0.75 ± 0.11 µM
[4]
  logP: 6.51

## C[C@]12CC[C@@H]3c4cc(C56CC7CC(CC(C7)C5)C6)c(O)cc4CC[C@H]3[C@@H]1CCC2=O [ZYC3, 2-(1-adamantyl)-3-hydroxyestra-1,3,5(10)-trien-17-one]
[1]
  effect on RGC viability, compound alone: no affect
  RGC killed by glutamate in the presence of the compound: killed significantly fewer cells
[2]
  IC50: 5.3 ± 1.2 µM
[3]
  IC50: 5.8 ± 1.3 µM

## C[C@]12CC[C@H]3[C@@H](CCC4=CC(=O)C=C[C@@]43O)[C@@H]1CCC2=O [estrone quinol, 10β-hydroxyestra-1,4-diene-3,17-dione]
[5]; 10-fold excess NADPH, 0.1 mM quinol, 0.1M sodium phosphate buffer pH 7.5
  rate of conversion: 6e-07 ± 4e-08 M/min
[5]; incubation with NADH or NADPH, pH 7.5
  formation of estrone: clearly detectable

## C[C@]12CC[C@H]3[C@@H](CCC4=CC(=O)C(C56CC7CC(CC(C7)C5)C6)=C[C@@]43O)[C@@H]1CC[C@@H]2O [2-(1-adamantyl)-10β,17β-dihydroxyestra-1,4-dien-3-one]
[4]; n-octanol/water, shake-flask, read-out: logPexp
  logP: 3.26

## C[C@]12CC=C3c4ccc(O)cc4CC[C@H]3[C@@H]1CCC2O (some centres unmarked) [ZYC1, 3,17-dihydroxyestra-1,3,5(10),9(11)-tetraene]
[1]
  effect on RGC viability, compound alone: no effect
  RGC killed by glutamate in the presence of the compound: killed significantly fewer cells; also recorded: reduced the number of RGC killed by glutamate
